Source: PMC9034162, “Development of pyrazoline-based derivatives as aminopeptidase N inhibitors to overcome cancer invasion and metastasis” (RSC Advances, 2021)

Tests used:
porcine APN = biological target: T1, porcine APN (Sus scrofa, UniProt P15145); experiment: Enzymatic inhibition assay against APN in vitro; format: biochemical; details: for IC50: soluble APN from porcine kidney microsomes, L-Leu-p-nitroanilide substrate, pH 7.2, 37 °C 30 min, mean ± SD, triplicate
T1 construct: soluble APN from porcine kidney microsomes (Biocol) was used as enzyme; purchased Biocol; host or cells: porcine kidney microsomes (tissue-derived)
T1 sequence (P15145 1-963): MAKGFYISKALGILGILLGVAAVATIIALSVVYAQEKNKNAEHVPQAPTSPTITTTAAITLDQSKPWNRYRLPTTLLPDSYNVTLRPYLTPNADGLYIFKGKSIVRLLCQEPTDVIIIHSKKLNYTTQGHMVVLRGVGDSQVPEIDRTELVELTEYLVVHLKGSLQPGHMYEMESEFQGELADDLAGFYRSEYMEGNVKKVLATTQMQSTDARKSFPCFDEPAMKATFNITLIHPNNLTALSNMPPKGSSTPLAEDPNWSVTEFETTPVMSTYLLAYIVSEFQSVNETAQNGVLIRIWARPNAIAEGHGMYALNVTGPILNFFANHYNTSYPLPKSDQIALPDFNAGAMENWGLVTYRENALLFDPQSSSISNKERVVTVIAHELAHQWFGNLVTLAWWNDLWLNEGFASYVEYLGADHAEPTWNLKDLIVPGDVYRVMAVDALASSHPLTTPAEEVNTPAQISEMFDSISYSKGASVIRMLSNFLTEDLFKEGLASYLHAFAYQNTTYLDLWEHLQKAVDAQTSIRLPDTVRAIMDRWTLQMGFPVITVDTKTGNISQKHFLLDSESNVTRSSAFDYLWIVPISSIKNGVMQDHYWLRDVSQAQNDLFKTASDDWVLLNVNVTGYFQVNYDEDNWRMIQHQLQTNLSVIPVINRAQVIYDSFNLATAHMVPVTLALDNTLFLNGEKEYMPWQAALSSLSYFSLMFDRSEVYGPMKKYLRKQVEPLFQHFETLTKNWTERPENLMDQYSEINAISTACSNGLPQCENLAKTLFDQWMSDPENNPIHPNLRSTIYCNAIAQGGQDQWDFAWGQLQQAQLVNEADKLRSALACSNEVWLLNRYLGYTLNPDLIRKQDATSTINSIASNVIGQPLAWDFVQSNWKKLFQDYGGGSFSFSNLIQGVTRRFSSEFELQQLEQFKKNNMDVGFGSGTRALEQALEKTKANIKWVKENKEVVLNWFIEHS
Description: In the enzymatic inhibition assay against APN in vitro, L-Leu-p-nitroanilide was used as substrate and soluble APN from porcine kidney microsomes (Biocol) was used as enzyme. 50 mM PBS with pH 7.2 was used as buffer solution. Briefly, inhibitors (40 μL), PBS (145 μL), substrate (5 μL, 16 mmol L^−1) and APN solution (10 μL, 0.15 IU mL^−1) were added into 96-well plates. The mixture was incubated at 37 °C for 30 min. The optical density resulting from the hydrolysis product p-nitroanilide was measured at 405 nm with a plate reader (Varioskan, Thermo, USA).

PLC/PRF/5 = experiment: Anti-proliferation assay (MTT); format: cell-based; details: Homo sapiens, 48 h, mean ± SD, triplicate, read-out: IC50 anti-proliferative, PLC/PRF/5
Description: (§1) The anti-proliferative activities of the selected compounds were evaluated using the MTT method. All the tumor cell lines were cultured in RPMI-1640 medium with 10% FBS at 37 °C in 5% CO2 humidified incubator. Firstly, cells (100 μL) were plated in 96-well plates and allowed to grow for 4 h. Then different concentrations of inhibitors (100 μL) were added. After incubation for 48 h, MTT solution (20 μL per well, 5 mg mL^−1) was added and the mixture was incubated for additional 4 h. Subsequently, the medium were poured off and DMSO (200 μL) was added to dissolve the formed formazan. After shaking for 15 min, the optical density values were measured using a plate reader at 570 nm (Varioskan, Thermo, USA).

K562 = experiment: Anti-proliferation assay (MTT); format: cell-based; details: Homo sapiens, 48 h, mean ± SD, triplicate, read-out: IC50 anti-proliferative, K562
Description: as §1

HepG2 = experiment: Anti-proliferation assay (MTT); format: cell-based; details: Homo sapiens, 48 h, mean ± SD, triplicate, read-out: IC50 anti-proliferative, HepG2
Description: as §1

PC-3 = experiment: Anti-proliferation assay (MTT); format: cell-based; details: Homo sapiens, 48 h, mean ± SD, triplicate, read-out: IC50 anti-proliferative, PC-3
Description: as §1

U937 = experiment: Anti-proliferation assay (MTT); format: cell-based; details: Homo sapiens, U-937, 48 h, mean ± SD, triplicate, read-out: IC50 anti-proliferative, U937
Description: as §1

ES-2 = experiment: Anti-proliferation assay (MTT); format: cell-based; details: Homo sapiens, 48 h, mean ± SD, triplicate, read-out: IC50 anti-proliferative, ES-2
Description: as §1

[1] = Body weight monitoring in H22 pulmonary metastasis model; format: in vivo; details: 60 mg kg^−1 d^−1 intraperitoneally for 12 days, Kunming mice, weights every two days
Description: (§2) All animal procedures were performed in accordance with the Guidelines for Care and Use of Laboratory Animals of Shandong University and approved by the Animal Ethical and Welfare Committee (AEWC, China). The mice hepatoma H22 cell line was our laboratory-owned and 6 week old male Kunming mice were purchased from Center for New Drugs Evaluation of Shandong University, China. Firstly, H22 cells suspension (0.1 mL, 7.5 × 10^7 mL^−1) was injected via tail vein to establish a mice H22 pulmonary metastasis model. Subsequently, the mice were randomly divided into treatment and control groups. […] The body weights were monitored every two days. Finally, the mice were sacrificed and the lungs were removed and fixed in Bouin's solution. After 24 h, the metastasis nodes on the surface of pulmonary lobes were counted.

ES-2 cells invasion = experiment: In vitro anti-invasion assay (matrigel transwell); format: cell-based
Description: The carbonate membrane coated with matrigel in the upper chamber of transwell insert (BD BioCoat™ Matrigel™ Invasion Chambers) was rehydrated with RPMI-1640 culture medium (500 μL) containing 1% FBS for 2 h. After removing the medium, the upper and lower chambers were added the RPMI-1640 culture medium (100 μL) with 1% FBS containing the tested compounds and the RPMI-1640 culture medium (750 μL) with 10% FBS, respectively. Then, ES-2 cells suspending in the RPMI-1640 culture medium containing 1% FBS (400 μL, 2.5 × 10^5 cells per mL) were added into the upper chambers. The system was placed at 37 °C in 5% CO2 for 8 h. The ES-2 cells could invade the matrigel and migrate from the upper surface of the carbonate membrane into the lower surface of that. ES-2 cells on the upper surface of the carbonate membrane were erased by cotton swabs. Then, ES-2 cells on the lower surface were fixed with methanol, stained with 0.1% crystal violet, of which the photographs were taken under an inverted microscope. The average numbers of ES-2 cells in five random fields (100×) per well were counted. The inhibition rate of ES-2 cells invasion was calculated as follows: (A − B)/A × 100%, A means the number of ES-2 cells in the control group, and B means the number of ES-2 cells in the treated group. The experiments were repeated three times.

mice H22 hepatoma cells = experiment: In vivo anti-metastatic assay, mice H22 hepatoma cell pulmonary metastasis model; details: 60 mg kg^−1 d^−1 intraperitoneally for 12 days, Kunming mice, H22 cells via tail vein
Description: as §2

| Structure (SMILES) | melting point | IC50 (porcine APN) | also measured |
| --- | --- | --- | --- |
| NC(=O)N1N=C(c2cccc(Br)c2)CC1c1ccccc1OCC(=O)NO (stereo not shown) [2b] | 164.4 to 166.4 °C | 260 ± 50 nM |  |
| NC(=O)N1N=C(c2ccc(Br)cc2)CC1c1ccccc1OCC(=O)NO (stereo not shown) [2c] | 190.2 to 192.2 °C | 2100 ± 200 nM |  |
| COc1ccccc1C1=NN(C(N)=O)C(c2ccccc2OCC(=O)NO)C1 (stereo not shown) [2d] | 198.4 to 200.2 °C | 270 ± 10 nM |  |
| COc1cccc(C2=NN(C(N)=O)C(c3ccccc3OCC(=O)NO)C2)c1 (stereo not shown) [2e] | 208.5 to 210.3 °C | 320 ± 30 nM |  |
| COc1ccc(C2=NN(C(N)=O)C(c3ccccc3OCC(=O)NO)C2)cc1 (stereo not shown) [2f] | 168.4 to 170.2 °C | 12500 ± 800 nM |  |
| Cc1ccccc1C1=NN(C(N)=O)C(c2ccccc2OCC(=O)NO)C1 (stereo not shown) [2g] | 144.5 to 146.2 °C | 110 ± 10 nM |  |
| NC(=O)N1N=C(c2ccccc2F)CC1c1ccccc1OCC(=O)NO (stereo not shown) [2h] | 124.4 to 126.1 °C | 150 ± 10 nM |  |
| NC(=O)N1N=C(c2c(F)cccc2F)CC1c1ccccc1OCC(=O)NO (stereo not shown) [2j] | 186.2 to 188.2 °C | 120 ± 10 nM |  |
| CC(C)C[C@H](NC(=O)[C@@H](O)[C@H](N)Cc1ccccc1)C(=O)O [Bestatin, reference compound] |  |  | IC50 (PLC/PRF/5): > 500000 nM; IC50 (K562): > 500000 nM; IC50 (HepG2): > 500000 nM; IC50 (PC-3): > 500000 nM; IC50 (U937): > 500000 nM; IC50 (ES-2): > 500000 nM; body weight loss [1]: no significant body weight loss |

Second part, led by results:

| melting point | IC50 (porcine APN) | Structure (SMILES) | also measured |
| --- | --- | --- | --- |
| 196.3 to 198.2 °C | 420 ± 30 nM | NC(=O)N1N=C(c2ccc(Cl)cc2Cl)CC1c1ccccc1OCC(=O)NO (stereo not shown) [2l] |  |
| 204.2 to 206.2 °C | 210 ± 40 nM | NC(=O)N1N=C(c2cccc3ccccc23)CC1c1ccccc1OCC(=O)NO (stereo not shown) [2m] | fold more potent against APN than 2n (porcine APN; IC50 ratio vs 2n): over 10 fold |
| 166.2 to 168.2 °C | 2500 ± 100 nM | NC(=O)N1N=C(c2ccc3ccccc3c2)CC1c1ccccc1OCC(=O)NO (stereo not shown) [2n] |  |
|  | 150 ± 20 nM | NC(=O)N1N=C(c2ccccc2)CC1c1ccccc1OCC(=O)NO (stereo not shown) [compound 1, reference compound] |  |
| 168.4 to 170.2 °C | 150 ± 30 nM | NC(=O)N1N=C(c2ccccc2Br)CC1c1ccccc1OCC(=O)NO (stereo not shown) [compound 2a, 3-(2-Bromophenyl)-5-(2-(2-(hydroxyamino)-2-oxoethoxy)phenyl)-4,5-dihydro-1H-pyrazole-1-carboxamide] |  |
| 172.2 to 174.1 °C | 100 ± 10 nM | NC(=O)N1N=C(c2ccccc2Cl)CC1c1ccccc1OCC(=O)NO (stereo not shown) [compound 2i] |  |
| 200.2 to 202.2 °C | 64 ± 10 nM | NC(=O)N1N=C(c2c(Cl)cccc2Cl)CC1c1ccccc1OCC(=O)NO (stereo not shown) [compound 2k] | IC50 (PLC/PRF/5): 106000 ± 4700 nM; IC50 (K562): 15600 ± 2200 nM; IC50 (HepG2): 101000 ± 4900 nM; IC50 (PC-3): 56100 ± 3100 nM; IC50 (U937): 49200 ± 3800 nM; IC50 (ES-2): 141000 ± 3800 nM; anti-invasion activity at 10 μM compared with 100 μM of bestatin (ES-2 cells invasion; ES-2 cells, 10 μM of 2k vs 100 μM bestatin): comparable, if not better; anti-invasion effect at 100 μM compared with bestatin (ES-2 cells invasion; ES-2 cells, both at 100 μM, P < 0.05): significantly better than that of bestatin; inhibition of ES-2 cells invasion (ES-2 cells invasion; transwell with matrigel, 8 h, several concentrations): inhibit the ES-2 cells invasion in a concentration dependent manner; body weight loss [1]: no significant body weight loss; fold more potent against APN than bestatin (porcine APN; IC50 ratio vs bestatin): over 140 fold; fold more potent against APN than compound 1 (porcine APN; IC50 ratio vs compound 1): > 2 fold; in vivo anti-metastasis effect (mice H22 hepatoma cells): effectively prevent the pulmonary metastasis |
| 156.6 to 158.2 °C | 30200 ± 1900 nM | COc1ccccc1C1=NN(C(N)=O)C(c2ccccc2OCC(=O)NN)C1 (stereo not shown) [compound 2o, 5-(2-(2-Hydrazinyl-2-oxoethoxy)phenyl)-3-(2-methoxyphenyl)-4,5-dihydro-1H-pyrazole-1-carboxamide] |  |
